Each compound was assayed against RNA-directed RNA polymerase (Hepacivirus hominis, UniProt O39930) (assay: Inhibition of Hepatitis C virus NS5B RNA-dependent RNA polymerase). Details: read-out: IC50.
Chain of RNA-directed RNA polymerase (O39930 whole entry): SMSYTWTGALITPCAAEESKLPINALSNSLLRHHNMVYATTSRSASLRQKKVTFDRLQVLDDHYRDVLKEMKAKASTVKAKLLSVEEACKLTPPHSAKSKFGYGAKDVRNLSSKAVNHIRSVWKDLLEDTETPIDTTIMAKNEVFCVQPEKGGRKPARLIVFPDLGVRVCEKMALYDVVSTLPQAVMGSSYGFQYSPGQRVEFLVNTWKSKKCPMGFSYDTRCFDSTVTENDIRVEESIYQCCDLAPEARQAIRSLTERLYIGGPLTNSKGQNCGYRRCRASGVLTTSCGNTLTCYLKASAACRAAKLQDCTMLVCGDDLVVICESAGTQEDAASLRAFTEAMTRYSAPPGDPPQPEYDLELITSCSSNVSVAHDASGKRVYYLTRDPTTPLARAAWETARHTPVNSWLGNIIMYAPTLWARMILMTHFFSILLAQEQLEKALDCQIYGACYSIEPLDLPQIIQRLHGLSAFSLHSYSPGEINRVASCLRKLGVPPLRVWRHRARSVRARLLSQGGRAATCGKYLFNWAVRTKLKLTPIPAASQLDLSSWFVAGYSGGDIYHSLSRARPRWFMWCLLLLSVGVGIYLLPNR

| Structure (SMILES) | IC50 [µM] |
| --- | --- |
| COc1cc(CSc2nc(-c3cccc(C)c3)c(C#N)c(=O)[nH]2)cc(OC)c1 | 30 |
| COc1cc(CSc2nc(-c3ccccc3C)c(C#N)c(=O)[nH]2)cc(OC)c1 | 25 |
| Cc1ccccc1-c1nc(SCc2ccccc2Br)[nH]c(=O)c1C#N | 32 |
| N#Cc1c(-c2ccccc2C(F)(F)F)nc(SCc2ccccc2Br)[nH]c1=O | 21 |
| COc1cc(CSc2nc(-c3ccc(F)cc3F)c(C#N)c(=O)[nH]2)cc(OC)c1 | 19 |
| Cc1cccc(CSc2nc(-c3ccc(F)cc3F)c(C#N)c(=O)[nH]2)c1 | 57 |
| N#Cc1c(-c2ccc(F)cc2F)nc(SCc2ccccc2Br)[nH]c1=O | 13 |
| N#Cc1c(-c2ccc(F)cc2F)nc(SCc2cccc([N+](=O)[O-])c2)[nH]c1=O | 32 |
| COc1cc(CSc2nc(-c3ccc(Cl)cc3Cl)c(C#N)c(=O)[nH]2)cc(OC)c1 | 34 |
| COc1cc(CSc2nc(-c3ccc(Br)cc3)c(C#N)c(=O)[nH]2)cc(OC)c1 | 13 |
| N#Cc1c(-c2ccc(Br)cc2)nc(SCc2cccc([N+](=O)[O-])c2)[nH]c1=O | 14 |
| Cc1cccc(CSc2nc(-c3cccc(C)c3)c(C#N)c(=O)[nH]2)c1 | 22 |
| Cc1cccc(-c2nc(SCc3cccc([N+](=O)[O-])c3)[nH]c(=O)c2C#N)c1 | 20 |
| Cc1cccc(CSc2nc(-c3cccc(C(F)(F)F)c3)c(C#N)c(=O)[nH]2)c1 | 14 |
| N#Cc1c(-c2cccc(C(F)(F)F)c2)nc(SCc2cccc([N+](=O)[O-])c2)[nH]c1=O | 13 |
| Cc1cccc(CSc2nc(-c3ccccc3C)c(C#N)c(=O)[nH]2)c1 | 14 |
| Cc1ccccc1-c1nc(SCc2cccc([N+](=O)[O-])c2)[nH]c(=O)c1C#N | 37 |

| Structure (SMILES) | IC50 [µM] |
| --- | --- |
| COc1cc(CSc2nc(-c3cc(F)cc(F)c3)c(C#N)c(=O)[nH]2)cc(OC)c1 | 15 |
| Cc1cccc(CSc2nc(-c3cc(F)cc(F)c3)c(C#N)c(=O)[nH]2)c1 | 27 |
| Cc1cccc(CSc2nc(-c3ccccc3C(F)(F)F)c(C#N)c(=O)[nH]2)c1 | 14 |
| COc1cc(CSc2nc(-c3cc(Cl)cc(Cl)c3)c(C#N)c(=O)[nH]2)cc(OC)c1 | 34 |
| Cc1cccc(CSc2nc(-c3cc(Cl)cc(Cl)c3)c(C#N)c(=O)[nH]2)c1 | 29 |
| COc1cc(CSc2nc(-c3ccc(C(C)C)cc3)c(C#N)c(=O)[nH]2)cc(OC)c1 | 25 |
| CCCCCSc1nc(-c2ccc(Cl)cc2Cl)c(C#N)c(=O)[nH]1 | 17 |
| N#Cc1c(-c2ccc(Br)cc2)nc(SCCC(=O)Oc2ccccc2)[nH]c1=O | 30 |
| N#Cc1c(-c2ccc(Br)cc2)nc(SCC2CCCCO2)[nH]c1=O (stereo unspecified) | 50 |
| CCCCCSc1nc(-c2cccc(C)c2)c(C#N)c(=O)[nH]1 | 18 |
| N#Cc1c(-c2cccc(C(F)(F)F)c2)nc(SCCC(=O)Oc2ccccc2)[nH]c1=O | 13 |
| CCCCCSc1nc(-c2ccccc2C)c(C#N)c(=O)[nH]1 | 18 |
| CCCCCSc1nc(-c2ccccc2C(F)(F)F)c(C#N)c(=O)[nH]1 | 20 |
| CCCCCSc1nc(-c2ccc(C(C)C)cc2)c(C#N)c(=O)[nH]1 | 12 |
| CC(C)c1ccc(-c2nc(SCC3CCCCO3)[nH]c(=O)c2C#N)cc1 (stereo unspecified) | 17 |
| Cc1cccc(CSc2nc(-c3ccc(Cl)cc3Cl)c(C#N)c(=O)[nH]2)c1 | 33 |

Second part, the compound after the results:

| IC50 [µM] | Structure (SMILES) |
| --- | --- |
| 10 | N#Cc1c(-c2ccc(Br)cc2)nc(SCc2ccccc2Br)[nH]c1=O |
| 12 | Cc1cccc(CSc2nc(-c3ccc(C(C)C)cc3)c(C#N)c(=O)[nH]2)c1 |
| 10 | CC(C)c1ccc(-c2nc(SCc3cccc([N+](=O)[O-])c3)[nH]c(=O)c2C#N)cc1 |
| 12 | CCCCCSc1nc(-c2cccc(C(F)(F)F)c2)c(C#N)c(=O)[nH]1 |
| 11 | N#Cc1c(-c2ccc(Cl)cc2Cl)nc(SCc2ccc(OC(F)(F)F)cc2)[nH]c1=O |
| 7.1 | N#Cc1c(-c2ccc(Br)cc2)nc(SCc2ccccc2C(F)(F)F)[nH]c1=O |
| 8.7 | N#Cc1c(-c2ccc(Br)cc2)nc(SCc2ccc(OC(F)(F)F)cc2)[nH]c1=O |
| 8.6 | Cc1cccc(-c2nc(SCc3ccc(OC(F)(F)F)cc3)[nH]c(=O)c2C#N)c1 |
| 11 | COc1cc(CSc2nc(-c3cccc(C(F)(F)F)c3)c(C#N)c(=O)[nH]2)cc(OC)c1 |
| 12 | COc1cc(CSc2nc(-c3ccccc3C(F)(F)F)c(C#N)c(=O)[nH]2)cc(OC)c1 |
| 9.2 | N#Cc1c(-c2ccccc2C(F)(F)F)nc(SCc2ccc(OC(F)(F)F)cc2)[nH]c1=O |
| 3.8 | CC(C)c1ccc(-c2nc(SCc3ccccc3Br)[nH]c(=O)c2C#N)cc1 |
| 9.9 | CC(C)c1ccc(-c2nc(SCc3ccc(OC(F)(F)F)cc3)[nH]c(=O)c2C#N)cc1 |
| 12 | CCCCCSc1nc(-c2ccc(F)cc2F)c(C#N)c(=O)[nH]1 |
| 12 | N#Cc1c(-c2ccc(Cl)cc2Cl)nc(SCCCc2ccccc2)[nH]c1=O |
| 11 | CCCCCSc1nc(-c2ccc(Br)cc2)c(C#N)c(=O)[nH]1 |
| 11 | Cc1cccc(CSc2nc(-c3ccc(Br)cc3)c(C#N)c(=O)[nH]2)c1 |

Same assay, conditions: read-out: pIC50 (converted)

| IC50 [µM] | Structure (SMILES) |
| --- | --- |
| 7.24 | N#Cc1c(-c2ccc(Br)cc2)nc(SCc2ccccc2C(F)(F)F)[nH]c1=O |
